According to patent US8592421B2, “Cyclic bioisosters of purine system derivatives and a pharmaceutical composition based thereon” (priority 2003, dated 2013):

How the values were obtained:
[1] = Electrochemical activity: polarographic reduction on mercury dripping electrode; type: physicochemical; details: for number of electrons participating in the reduction reaction: calculated with Geirovsky-Ilkovich equation; for i: 2.0% sodium chloride background, 9·10^−4 M; for i / −E1/2: 37° C., forward trace, average for the group of compounds; for −E1/2: vs SCE; for half-wave potential more positive at reverse stroke compared to forward stroke: polarograms of reverse stroke
Experimental: The study was carried out on a general-purpose polarograph PU-1 with a two-coordinate recorder of the “LKD” type using a three-electrode thermostatically controlled polarographic cell and mercury dripping electrode (MDE) with forced separation of the drop and a dropping period of 0.5 second. A platinum wire was used as an auxiliary electrode and a saturated calomel electrode (SCE) was used as a control electrode.
2.0% solutions of sodium chloride having pH 7.0, 7.2, 7.4, 7.6 were used as a background; the pH values of the background solution were corrected by a solution of sodium hydroxide. The polarographic cell was filled with 5.0 ml of the background solution and for 5 minutes was purged with nitrogen for removing the dissolved oxygen. Then 0.5 ml of solution of the studied substance was added to the background solution, and the polarogram was recorded as a polarographic wave. The concentration of the compounds in the polarographic cell was 9·10^−4 M.
The pH was measured on the pH-meter with an accuracy of +0.05 pH units. The polarographic measurements were carried out at a temperature of 37° C. The recording of polarograms of the investigated materials was effected under conditions of DC current at a scanning rate of the potential 10.0 mV/s with a active scanning stroke from a potential 0 to −0.5 V and sweep retrace from a −0.5 V to 0. The electric-current sensitivity was 5.0 mkA. The scale by the coordinate of the potentials was 50.0 mV/cm. The values of potentials of the half-wave E1/2 of the investigated materials are given with respect to the SCE potential.
The polarogram parameters such as a limiting current ilim and E1/2 were determined by the graphic method. The number of electrons participating in the reaction was calculated on the basis of the analysis of the polarographic wave using the Geirovsky-Ilkovich equation.
The calculation of the number of electrons participating in the reduction reaction was effected using the Geirovsky-Ilkovich equation: […]

[2] = system: embryonic fibroblasts of mouse NIH-3T3; assay: Effect on endocellular pHi of fibroblasts (microspectrofluorimetry with FDA / BCECF-AM); type: cell-based; details: for rise of pHi: fibroblasts in an attached spread state; for change of pHi: medium DME without blood serum, 20 minutes; for increase of pHi of cytosol: medium with 10.0% blood serum, 20 minutes after addition
Experimental: The effect of the compounds according to the invention on the endocellular pH, embryonic fibroblasts of mouse NIH-3T3 supplied by the All-Russian Collection of Cellular Cultures of the Institute of Cytology of the Russian Academy of Sciences St. Petersburg was investigated. The cells were grown in the DMEM (Sigma) medium containing 2.2 g/l of sodium bicarbonate with addition of 80.0 mkg/ml of gentamicin and 10.0% embryonal veal serum at a temperature of 37° C. in an atmosphere containing 5.0% of carbon dioxide. For these experiments use was also made of a medium buffer with 5.0 mM of HEPES and 15.0 mM of sodium bicarbonate without serum or with addition of 5.0% serum. The cells were calculated with the help of a hemocytometer. A share of the dead cells was determined by colouring trypan blue.
The measurements of the endocellular pHi were carried out with the help of colorants FDA (Sigma) and BCECF-AM (Calbiochem) on a microspectrofluorimeter by a standard technique (Koshevoy Yu. V., Akatov V. S., Grobova M. E. Microspectrofluorimeter for measuring endocellular pH (micro pH)”. Devices and equipment for studies in the field of physical-and-chemical biology and biotechnology. Pushchino, 1990. P. 8-14).
The cells at a temperature of 37° C. were colored within 5 minutes with 5.0 mkM PDA that before the colouring was prepared from a 10.0 mM solution in acetone by dilution for 30 minutes in a phosphatic buffer to 0.1 mM or 2.0 mkM 1.0 mM solution BCECF-AM in DMSO.
The two-wave method of determining pHi was used based on the ratio intensities of fluorescence of the cells on two wavelengths (Akatov V. S. et all), “Endocellular pH and substrate dependence of proliferation of fibroblasts of Chinese hamster, Cytology, 1991, 33 (7), p. 86-94). The fluorescence was excited by light at λ=490 nm, the emission was recorded simultaneously with two photomultipliers on wavelengths λ=535 nm and λ=570 nm. The K-ratio of the fluorescence on two wavelengths was determined with a deduction of the background fluorescence of the medium near the investigated cells for 40-60 individual cells, which are then averaged taking into account the measurement error. A thermostatically controlled table was used that allowed measurements to be conducted at a temperature of 37° C. An account was taken for the photodynamic damage of the pigmented cells during long-time continuous illumination by excited light. The readings were taken from a section of the preparation exposed to light for not more than 5 minutes.
The calibration curves for determining the absolute pHi values by magnitude K were constructed using the Thomas technique (Thomas J. A., Bushbaum R. N., Zimniak A. w Racker E. “Intracellular pH measurements in Ehrlich ascites tumor cells utilizing spectroscopic probe generated in situ”, Biochemistry, 1979, v. 18, p. 2210-2218), for which case the pigmented cells treated for 5-10 minutes with carboxyacidic nigericyn (Calbiochem) at a concentration of 5-10 mkg/ml was placed in a solution with a high content of potassium—130 mM KCl, 1.0 mM MgCl2, 20.0 mM of HEPES) and with pH values from 6.2 to 7.6. The K values were measured in the media with different pH assuming that pHi of the cells equals to the pH of the medium due to the action of nigericyn, which exchanges potassium ions for protons and at a high content of potassium in the medium counterbalances the pH of the medium and cells. Calibration curves were used based on the fluorescence of same medium with addition of 5.0 mkM of fluorescence or BCECF were used to the control the stability of the of the instrument readings.
The cells were colored by pigment BCECF-AM and pHi was measured 10 minutes after incubation in the medium with an appropriate pH value. […]

Row | Compound | number of electrons participating in the reduction reaction [1] | i ([1]; pH 7.0) [mkA] | −E1/2 ([1]; pH 7.0) [V] | i ([1]; pH 7.2) [mkA] | −E1/2 ([1]; pH 7.2) [V] | i ([1]; pH 7.4) [mkA] | −E1/2 ([1]; pH 7.4) [V] | i ([1]; pH 7.6) [mkA] | −E1/2 ([1]; pH 7.6) [V] | half-wave potential more positive at reverse stroke compared to forward stroke [1] [mV] | rise of pHi ([2]; 2.0 mkg/ml, on the average) [unit pHi] | rise of pHi ([2]; 20.0 mkg/ml, on the average) [unit pHi] | change of pHi ([2]; 0.02 mkg/ml) | change of pHi ([2]; 0.2 mkg/ml) | change of pHi ([2]; 2.0 mkg/ml, on the average) [unit pHi] | change of pHi ([2]; 20.0 mkg/ml, on the average) [unit pHi] | change of pHi ([2]; 200 mkg/ml) | change of pHi ([2]; 1000 mkg/ml) | increase of pHi of cytosol ([2]; 0.02 mkg/ml) | increase of pHi of cytosol ([2]; 0.2 mkg/ml, on the average) [unit pH] | also measured
1 | O=c1[nH][nH]c(=O)c2ncccc12.[Na] [Compound 7, sodium salt of pyrido[2,3-d]-6H-pyridazine-5,8-dione] | 3.72 | 0.26 ± 0.04 | 0.11 ± 0.02 | 0.31 ± 0.02 | 0.11 ± 0.03 | 0.27 ± 0.03 | 0.105 ± 0.01 | 0.30 ± 0.01 | 0.105 ± 0.02 | 25.0 | 0.10 | 0.07 | no effect was found | no effect was found | 0.08 | 0.08 | no effect was found | no effect was found | do not initiate a change of pH | 0.1 | increase of pHi of cytosol ([2]; 2.0 mkg/ml, on the average): 0.12 unit pH; increase of pHi of cytosol ([2]; 20.0 mkg/ml): do not initiate a change of pH
2 | O=C([O-])c1ccc2c(=O)[nH][nH]c(=O)c2c1.O=C([O-])c1ccc2c(=O)[nH][nH]c(=O)c2c1.[Na+].[Na+] [Compound 18, disodium salt of 6-carboxy-benzo[d]-3H-pyridazine-1,4-dione] | 4.09 | 0.23 ± 0.03 | 0.092 ± 0.02 | 0.30 ± 0.01 | 0.09 ± 0.01 | 0.29 ± 0.02 | 0.092 ± 0.02 | 0.31 ± 0.02 | 0.09 ± 0.01 | 30.0 | 0.10 | 0.07 | no effect was found | no effect was found | 0.08 | 0.08 | no effect was found | no effect was found | do not initiate a change of pH | 0.1 | increase of pHi of cytosol ([2]; 2.0 mkg/ml, on the average): 0.12 unit pH; increase of pHi of cytosol ([2]; 20.0 mkg/ml): do not initiate a change of pH
3 | COP(=O)(OC)C(C)(C)CC(C)=O [Dimesphosphon, dimethyl ester of 1,1-dimethyl-3-oxybuthyl of phosphonic acid, reference compound] | 1.6 | 0.10 ± 0.03 | 0.175 ± 0.01 | 0.12 ± 0.03 | 0.17 ± 0.02 | 0.11 ± 0.02 | 0.18 ± 0.01 | 0.11 ± 0.02 | 0.18 ± 0.01 | 50.0 | – | – | – | – | – | – | – | – | – | – | electrons consumed during the reduction ([1]; conclusion from calculated number): 2
4 | disodium salt of 3-κapõoκcℏ-7-(β-D-ribofuranosile)pyrido[2,3-d]-6H-pyridazine-5,8-dione [Compound 5] | 3.72 | 0.26 ± 0.04 | 0.11 ± 0.02 | 0.31 ± 0.02 | 0.11 ± 0.03 | 0.27 ± 0.03 | 0.105 ± 0.01 | 0.30 ± 0.01 | 0.105 ± 0.02 | 25.0 | – | – | – | – | – | – | – | – | – | – | –
